Reference: patent publication US11958856B2, “Substituted 1,2,3,8,9,9a-hexahydro-5H-pyrrolo[1,2-a]azepin-5-ones as factor XIa inhibitors” (Janssen Pharmaceutica NV, priority 2021, dated 2024)
Peptide text beside a SMILES is read from it. * marks the point of attachment. 5FAM = O=C1OC2(c3ccc(O)cc3Oc3cc(O)ccc32)c2ccc(C(=O)*)cc21; AMC = Cc1cc(=O)oc2cc(N*)ccc12; Cbz = O=C(OCc1ccccc1)*

Legend:
Type in all cases: biochemical
human plasma kallikrein [1] = target: T1, human plasma kallikrein (Homo sapiens, UniProt P03952); assay: Kinetic parameters of the peptide substrate with kallikrein (Michaelis-Menten fit)
Text: (§1) A fluorescence intensity (FLINT) based assay was used to monitor inhibition of human plasma kallikrein. The peptide substrate, Z-Gly-Pro-Arg-AMC (Purchased from Bachem; Catalog #I-1150) was chosen based on its relatively low KM for kallikrein which enables running the assay at lower substrate concentrations to control background fluorescence.

human plasma kallikrein [2] = target: T1, human plasma kallikrein; assay: Kallikrein inhibition assay (FLINT) with quenched AMC peptide substrate; details: 30 min preincubation; 50 μM Z-Gly-Pro-Arg-AMC substrate; 2 nM kallikrein; top compound concentration 1 μM
Text: Biological Example 2: Kallikrein Inhibition Assay Utilizing a Quenched AMC Peptide Substrate
as §1
The Kallikrein FLINT assay was used with the following Z-Gly-Pro-Arg-AMC assay buffer: 50 mM Tris, pH 7.5, 100 mM NaCl, 5 mM CaCl2, 0.1 mg/mL BSA, 0.03% CHAPS. Assay buffer was prepared by mixing all ingredients fresh. 2× Z-Gly-Pro-Arg-AMC peptide substrate was prepared by diluting 10 mM stock into 1× assay buffer for a 100 μM working concentration (50 μM final concentration). […]
Test compound(s) were run in an 11-point, 3-fold serial dilution with a final top compound concentration of 1 μM. […] The assay was run with kinetic (KIN) reads at 5 min intervals over 30 minutes. […]
(§2) Percent inhibition (IC50) curves were generated per compound tested, and data was analyzed using a 4-parameter logistic fit using GeneData Screener. The relative fluorescence unit (RFU) values were normalized to percent inhibition using the following equation: % inhibition=((HC−LC)−(compound−LC)/(HC−LC))*100 […]

Factor XIa [3] = target: T2, Factor XIa (Homo sapiens, UniProt P03951); assay: Factor XIa inhibition assay (FLINT) with fluorophore-quencher pair peptide substrate
Text: Biological Example 1: Factor XIa Inhibition Assay Utilizing a Fluorophore-Quencher Pair Peptide Substrate
(§3) A fluorescence intensity (FLINT) based assay was used to monitor inhibition of Factor XIa. The peptide substrate, 5Fam-KLTRAETV-K5Tamra (purchased from New England Peptide) was chosen based on the FXI sequence. Conversion of zymogen FXI to its activated form, FXIa, occurs by proteolytic cleavage by […] at two sites, Arg146 and Arg180. The custom peptide used in this assay was based on the Arg146 cleavage site of FXI. The peptide substrate was designed with a fluorophore-quencher pair, where the fluorescence is quenched until FXIa cleaves the 8-mer peptide after the Arg residue.
The Factor XIa FLINT assay was used with the following 5Fam-KLTRAETV-K5Tamra assay buffer: 50 mM Tris, pH 7.5, 100 mM NaCl, 5 mM CaCl2, 0.1 mg/mL BSA, 0.03% CHAPS. […]
Test compound(s) were run in an 11-point, 3-fold serial dilution with a final top compound concentration of 100 nM. […] The assay was run with kinetic (KIN) reads at 5 min intervals over 30 minutes. […]
as §2

Factor XIa [4] = target: T2, Factor XIa; assay: Kinetic parameters of the peptide substrate with Factor XIa (substrate inhibition model); details: substrate of FXIa
Text: as §3

T2 sequence (P03951 388-625 limits assumed): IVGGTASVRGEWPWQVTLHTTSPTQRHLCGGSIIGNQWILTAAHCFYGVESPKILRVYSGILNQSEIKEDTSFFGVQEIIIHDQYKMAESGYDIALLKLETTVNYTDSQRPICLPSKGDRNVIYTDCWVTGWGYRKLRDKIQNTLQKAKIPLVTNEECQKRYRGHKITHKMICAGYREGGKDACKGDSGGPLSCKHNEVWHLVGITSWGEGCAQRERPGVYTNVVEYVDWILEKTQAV
T2 sequence (P03951 19-387 partner limits assumed): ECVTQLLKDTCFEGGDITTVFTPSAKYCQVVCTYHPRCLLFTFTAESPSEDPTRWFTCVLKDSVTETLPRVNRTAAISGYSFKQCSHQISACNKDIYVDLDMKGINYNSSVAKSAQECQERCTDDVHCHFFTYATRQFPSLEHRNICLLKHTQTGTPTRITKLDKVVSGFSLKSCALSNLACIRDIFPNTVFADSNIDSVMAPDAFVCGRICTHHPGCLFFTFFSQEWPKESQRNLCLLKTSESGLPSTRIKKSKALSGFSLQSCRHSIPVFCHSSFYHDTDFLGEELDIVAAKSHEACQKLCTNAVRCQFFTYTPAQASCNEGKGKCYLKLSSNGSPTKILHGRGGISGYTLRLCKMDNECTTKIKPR
T1 sequence (P03952 391-638 limits assumed): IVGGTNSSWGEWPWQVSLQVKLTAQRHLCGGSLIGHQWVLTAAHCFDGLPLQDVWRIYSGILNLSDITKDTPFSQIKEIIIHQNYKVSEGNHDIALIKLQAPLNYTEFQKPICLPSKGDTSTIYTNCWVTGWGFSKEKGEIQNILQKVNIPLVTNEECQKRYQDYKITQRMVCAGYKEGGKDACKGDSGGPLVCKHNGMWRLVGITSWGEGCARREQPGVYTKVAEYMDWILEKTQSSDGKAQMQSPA
T1 sequence (P03952 20-390 partner limits assumed): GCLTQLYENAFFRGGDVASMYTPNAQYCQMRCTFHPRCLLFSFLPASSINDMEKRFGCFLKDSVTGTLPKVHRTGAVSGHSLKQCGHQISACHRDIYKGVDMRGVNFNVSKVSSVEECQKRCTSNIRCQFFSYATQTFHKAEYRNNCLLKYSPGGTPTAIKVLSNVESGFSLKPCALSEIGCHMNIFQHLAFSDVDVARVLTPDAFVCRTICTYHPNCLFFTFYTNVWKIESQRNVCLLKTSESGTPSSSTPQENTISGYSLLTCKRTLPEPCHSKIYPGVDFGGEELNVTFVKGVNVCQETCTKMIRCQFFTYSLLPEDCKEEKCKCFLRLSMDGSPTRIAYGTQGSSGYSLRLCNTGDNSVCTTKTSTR

`Cc1cc(=O)oc2cc(NC(=O)[C@H](CCCNC(=N)N)NC(=O)[C@@H]3CCCN3C(=O)CNC(=O)OCc3ccccc3)ccc12` [Z-Gly-Pro-Arg-AMC] (Cbz-Gly-Pro-Arg-{AMC}) showed a kcat (human plasma kallikrein [1]) of 0.76 s⁻¹.
For `NC(=O)c1ccc(NC(=O)[C@@H]2CC[C@H]3CCC(c4c(-n5cnnn5)ccc(Cl)c4F)=CC(=O)N32)cc1F` [ID No. 20, (3S,9aR)-N-(4-carbamoyl-3-fluorophenyl)-7-(3-chloro-2-fluoro-6-(1H-tetrazol-1-yl)phenyl)-5-oxo-2,3,5,8,9,9a-hexahydro-1H-pyrrolo[1,2-a]azepine-3-carboxamide], the IC50 (human plasma kallikrein [2]) was 802 nM, the IC50 (Factor XIa [3]; 30 min preincubation, 15 μM 5Fam-KLTRAETV-K5Tamra substrate, top compound concentration 100 nM, kinetic read) was > 100 nM and the Ki (Factor XIa [3]; same assay as Factor XIa IC50) was > 50 nM.
Compound “5Fam-KLTRAETV-K5Tamra (5FAM-KLTRAETV-{K(5-TAMRA)}) [fluorophore-quencher pair peptide substrate based on the Arg146 cleavage site of FXI, purchased from New England Peptide]” has a Ki (Factor XIa [4]) of 61600 nM, a Km (Factor XIa [4]) of 12.4 µM and a kcat (Factor XIa [4]) of 0.86 s⁻¹.
